Earlier results in US5905084A, “5-HTIF -agonists effective in treating migraine” (priority 1997, dated 1999).

How the values were obtained:
[1] = test system: neurogenic inflammation; conditions: Neurology, 43(suppl. 3), S16-S20 (1993)
[2] = test system: exploratory behavior in arthritic animals; conditions: Larsen and Arnt (1985)

| Compound | neurogenic inflammation blocked [1] | exploratory behavior [2] |
| --- | --- | --- |
| CNS(=O)(=O)Cc1ccc2[nH]cc(CCN(C)C)c2c1.O=C(O)CCC(=O)O [Compound I, 3-[2-(dimethylamino)ethyl]-N-methyl-1H-indole-5-methanesulfonamide butane-1,4-dioate (1:1)] | blocked | – |
| CN(C)CCCC1(c2ccc(F)cc2)OCc2cc(C#N)ccc21 (centres unmarked) [citalopram] | – | improve exploratory behavior |
